What was measured:
[1] = biological target: cGMP-specific 3',5'-cyclic phosphodiesterase (Homo sapiens, UniProt O76074); assay: DRUGMATRIX: Phosphodiesterase PDE5 enzyme inhibition (substrate: [3H]cGMP + cGMP); type: tissue-based, Platelet; details: platelet; Not Active = under 50% inhibition at 10 µM
Substance-K receptor = biological target: T1, Substance-K receptor (Homo sapiens, UniProt P21452); type: cell membranes, CHO, Membrane; details: for Ki: read-out: Ki; for all read-outs here: in other assays of this panel Not Active means under 50% inhibition at 10 µM
T1 sequence (P21452 whole entry): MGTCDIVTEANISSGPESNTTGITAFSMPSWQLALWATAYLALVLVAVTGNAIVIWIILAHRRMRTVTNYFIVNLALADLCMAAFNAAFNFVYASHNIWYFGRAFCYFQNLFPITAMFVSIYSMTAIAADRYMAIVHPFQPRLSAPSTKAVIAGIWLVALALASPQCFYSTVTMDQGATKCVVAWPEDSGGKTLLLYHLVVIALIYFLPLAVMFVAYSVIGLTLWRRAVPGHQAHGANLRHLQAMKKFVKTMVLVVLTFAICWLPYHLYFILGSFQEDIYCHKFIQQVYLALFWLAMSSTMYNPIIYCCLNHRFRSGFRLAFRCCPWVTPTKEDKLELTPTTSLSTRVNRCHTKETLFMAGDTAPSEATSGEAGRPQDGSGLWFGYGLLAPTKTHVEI

Endothelin-1 receptor = biological target: T2, Endothelin-1 receptor (Homo sapiens, UniProt P25101); type: cell membranes, Membrane; details: cho-k1; note: in other assays of this panel Not Active means under 50% inhibition at 10 µM
T2 sequence (P25101 whole entry): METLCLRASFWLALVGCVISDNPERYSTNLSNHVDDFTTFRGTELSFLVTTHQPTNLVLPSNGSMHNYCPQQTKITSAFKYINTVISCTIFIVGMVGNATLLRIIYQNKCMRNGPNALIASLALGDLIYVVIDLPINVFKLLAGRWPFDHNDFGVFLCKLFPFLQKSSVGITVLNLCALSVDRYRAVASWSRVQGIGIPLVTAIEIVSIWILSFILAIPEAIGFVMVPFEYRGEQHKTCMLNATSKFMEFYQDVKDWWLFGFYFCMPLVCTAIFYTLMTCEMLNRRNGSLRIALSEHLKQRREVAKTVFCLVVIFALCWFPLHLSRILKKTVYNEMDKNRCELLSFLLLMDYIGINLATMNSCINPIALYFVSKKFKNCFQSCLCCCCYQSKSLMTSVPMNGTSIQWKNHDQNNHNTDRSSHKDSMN

Calcitonin receptor = biological target: T3, Calcitonin receptor (Homo sapiens, UniProt P30988); type: cell membranes, Membrane; details: t47d; note: in other assays of this panel Not Active means under 50% inhibition at 10 µM
T3 sequence (P30988 whole entry): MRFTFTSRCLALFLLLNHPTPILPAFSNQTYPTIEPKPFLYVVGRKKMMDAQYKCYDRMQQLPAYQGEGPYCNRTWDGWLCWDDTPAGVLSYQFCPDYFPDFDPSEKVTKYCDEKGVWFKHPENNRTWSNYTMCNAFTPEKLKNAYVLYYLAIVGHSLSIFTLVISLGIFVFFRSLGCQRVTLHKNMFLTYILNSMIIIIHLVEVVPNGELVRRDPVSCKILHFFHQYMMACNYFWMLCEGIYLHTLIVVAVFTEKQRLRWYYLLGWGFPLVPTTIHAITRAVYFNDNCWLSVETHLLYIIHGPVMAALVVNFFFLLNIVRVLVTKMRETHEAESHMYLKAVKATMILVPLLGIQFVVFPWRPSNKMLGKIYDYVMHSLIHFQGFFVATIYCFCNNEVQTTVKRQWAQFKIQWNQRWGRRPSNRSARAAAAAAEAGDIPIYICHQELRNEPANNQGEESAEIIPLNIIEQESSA

Acetylcholinesterase = Acetylcholinesterase (Homo sapiens, UniProt P22303); assay: DRUGMATRIX: Acetylcholinesterase enzyme inhibition (substrate: acetylthiocholine); type: cell-based, HEK293; details: Not Active = under 50% inhibition at 10 µM
Sequence of Acetylcholinesterase (P22303 whole entry): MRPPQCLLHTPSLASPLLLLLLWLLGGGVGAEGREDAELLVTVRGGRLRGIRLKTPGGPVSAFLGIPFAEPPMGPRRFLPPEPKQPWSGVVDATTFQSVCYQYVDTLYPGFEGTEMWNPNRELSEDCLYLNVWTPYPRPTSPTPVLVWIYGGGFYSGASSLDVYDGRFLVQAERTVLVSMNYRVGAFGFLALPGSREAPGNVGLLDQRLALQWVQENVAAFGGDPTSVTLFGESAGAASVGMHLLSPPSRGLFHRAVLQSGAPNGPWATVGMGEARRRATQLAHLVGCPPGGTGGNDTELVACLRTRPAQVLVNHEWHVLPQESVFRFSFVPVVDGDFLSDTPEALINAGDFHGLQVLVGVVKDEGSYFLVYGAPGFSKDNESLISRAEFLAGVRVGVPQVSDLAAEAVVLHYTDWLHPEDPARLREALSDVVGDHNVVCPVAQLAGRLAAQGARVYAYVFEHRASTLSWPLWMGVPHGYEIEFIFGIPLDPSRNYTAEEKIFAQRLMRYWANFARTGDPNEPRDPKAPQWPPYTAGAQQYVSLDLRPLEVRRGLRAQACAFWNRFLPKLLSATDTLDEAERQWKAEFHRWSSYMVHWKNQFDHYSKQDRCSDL

[2] = biological target: Delta-type opioid receptor (Homo sapiens, UniProt P41143); type: cell membranes, Membrane; details: hek293; note: in other assays of this panel Not Active means under 50% inhibition at 10 µM
Sequence of Delta-type opioid receptor (P41143 whole entry): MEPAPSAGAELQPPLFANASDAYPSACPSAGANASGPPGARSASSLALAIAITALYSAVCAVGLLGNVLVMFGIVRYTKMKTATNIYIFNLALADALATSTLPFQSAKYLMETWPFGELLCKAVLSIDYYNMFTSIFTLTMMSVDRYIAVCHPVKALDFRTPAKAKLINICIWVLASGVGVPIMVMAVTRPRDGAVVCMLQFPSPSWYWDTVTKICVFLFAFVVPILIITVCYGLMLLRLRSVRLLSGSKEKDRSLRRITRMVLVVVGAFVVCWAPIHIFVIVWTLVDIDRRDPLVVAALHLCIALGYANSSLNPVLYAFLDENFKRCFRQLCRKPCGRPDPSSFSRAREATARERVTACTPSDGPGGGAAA

Cannabinoid receptor 1 = Cannabinoid receptor 1 (Homo sapiens, UniProt P21554); type: cell membranes, Chem-1, Membrane; note: in other assays of this panel Not Active means under 50% inhibition at 10 µM
Sequence of Cannabinoid receptor 1 (P21554 whole entry): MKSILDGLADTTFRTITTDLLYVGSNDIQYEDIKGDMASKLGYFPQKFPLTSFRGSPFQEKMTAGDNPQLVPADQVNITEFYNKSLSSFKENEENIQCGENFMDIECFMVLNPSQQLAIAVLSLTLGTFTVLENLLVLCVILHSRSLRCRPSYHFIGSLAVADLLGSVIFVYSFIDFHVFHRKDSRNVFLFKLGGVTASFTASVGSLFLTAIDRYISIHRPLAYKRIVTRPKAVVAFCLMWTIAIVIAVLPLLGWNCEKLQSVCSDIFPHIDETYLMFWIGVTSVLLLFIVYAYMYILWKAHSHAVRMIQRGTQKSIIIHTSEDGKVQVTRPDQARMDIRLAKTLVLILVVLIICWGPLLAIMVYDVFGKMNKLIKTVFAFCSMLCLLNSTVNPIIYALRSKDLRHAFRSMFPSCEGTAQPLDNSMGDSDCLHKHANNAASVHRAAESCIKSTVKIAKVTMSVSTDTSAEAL

Row | SMILES | IC50 [1] | IC50 (Substance-K receptor; cho) | IC50 (Endothelin-1 receptor) | IC50 (Calcitonin receptor) | IC50 (Acetylcholinesterase; hek293) | IC50 [2] | IC50 (Cannabinoid receptor 1; chem-1) | IC50 (Substance-K receptor; read-out: IC50) [µM] | Ki (Substance-K receptor) [µM] | IC50 (Acetylcholinesterase; read-out: IC50) [µM] | IC50 (Cannabinoid receptor 1; read-out: IC50) [µM] | Ki (Cannabinoid receptor 1; read-out: Ki) [µM] | Ki (Cannabinoid receptor 1; chem-1)
1 | Cc1c(C)c2c(c(C)c1O)CCC(C)(CN1CCN(c3cc(N4CCCC4)nc(N4CCCC4)n3)CC1)O2 (stereo not given) | Not Active | Not Active | Not Active | Not Active | Not Active | Not Active | Not Active |  |  |  |  |  | 
2 | COc1ccc(CCN(C)CCCC(C#N)(c2ccc(OC)c(OC)c2)C(C)C)cc1OC (stereo not given) | Not Active | Not Active | Not Active | Not Active | Not Active | Not Active | Not Active |  |  |  |  |  | 
3 | CC(C)Cc1ccc([C@@H](C)C(=O)O)cc1 [(R)-IBUPROPHEN] | Not Active | Not Active | Not Active | Not Active | Not Active | Not Active | Not Active |  |  |  |  |  | 
4 | CN(C)CCOC(c1ccccc1)c1ccccc1 [DIPHENHYDRAMINE] | Not Active | Not Active | Not Active | Not Active | Not Active | Not Active | Not Active |  |  |  |  |  | 
5 | Clc1ccc(COC(Cn2ccnc2)c2ccc(Cl)cc2Cl)cc1 (stereo not given) [ECONAZOLE] | Not Active |  | Not Active | Not Active |  |  |  | 6.03 | 2.01 | 13.7 |  |  | 
6 | CCN(CC)CCOc1ccc(/C(=C(/Cl)c2ccccc2)c2ccccc2)cc1 [ENCLOMIPHENE] | Not Active |  | Not Active | Not Active | Not Active | Not Active | Not Active | 4.52 | 1.51 |  |  |  | 
7 | Fc1ccc(C(c2ccc(F)cc2)N2CCN(C/C=C/c3ccccc3)CC2)cc1 [FLUNARIZINE] | Not Active | Not Active | Not Active | Not Active | Not Active | Not Active |  |  |  |  | 3.03 | 2.39 | 
8 | CNCCC(Oc1ccc(C(F)(F)F)cc1)c1ccccc1 (stereo not given) [FLUOXETINE] | Not Active | Not Active | Not Active | Not Active | Not Active | Not Active | Not Active |  |  |  |  |  | 
9 | Cc1ccc(NC(=O)c2ccc(CN3CCN(C)CC3)cc2)cc1Nc1nccc(-c2cccnc2)n1 [IMATINIB] | Not Active | Not Active | Not Active | Not Active | Not Active | Not Active | Not Active |  |  |  |  |  | 
10 | CC(C)Oc1ccc2c(=O)c(-c3ccccc3)coc2c1 [IPRIFLAVONE] | Not Active | Not Active | Not Active | Not Active | Not Active | Not Active | Not Active |  |  |  |  |  | 
11 | CC(C)NCC(O)c1ccc(O)c(O)c1 (stereo not given) [ISOPROTERENOL] | Not Active | Not Active | Not Active | Not Active | Not Active | Not Active | Not Active |  |  |  |  |  | 
12 | CNC1(c2ccccc2Cl)CCCCC1=O (stereo not given) [KETAMINE] | Not Active | Not Active | Not Active | Not Active | Not Active | Not Active | Not Active |  |  |  |  |  | 
13 | N#Cc1ccc(C(c2ccc(C#N)cc2)n2cncn2)cc1 [LETROZOLE] | Not Active | Not Active | Not Active | Not Active | Not Active | Not Active | Not Active |  |  |  |  |  | 
14 | CCN1CCC[C@H]1CNC(=O)c1cc(S(N)(=O)=O)ccc1OC [LEVOSULPIRIDE] | Not Active | Not Active | Not Active | Not Active | Not Active | Not Active | Not Active |  |  |  |  |  | 
15 | CCN(CC)CC(=O)Nc1c(C)cccc1C [LIDOCAINE] | Not Active | Not Active | Not Active | Not Active | Not Active | Not Active | Not Active |  |  |  |  |  | 
16 | O=C1Nc2ccc(Cl)cc2C(c2ccccc2Cl)=NC1O (stereo not given) [LORAZEPAM] | Not Active | Not Active | Not Active | Not Active | Not Active | Not Active | Not Active |  |  |  |  |  | 
17 | CO[C@@H]1[C@@H](OC)[C@H](C)[C@@](O)(CC(=O)O)O[C@H]1[C@H](C)[C@H]1O[C@@]2(CC[C@@](C)([C@H]3CC[C@@](C)([C@@H]4O[C@@H]([C@H]5O[C@](C)(O)[C@H](C)C[C@@H]5C)C[C@@H]4O[C@@H]4C[C@H](OC)[C@@H](OC)[C@H](C)O4)O3)O2)C[C@H](O)[C@H]1C [MADURAMICIN ACID] | Not Active | Not Active | Not Active | Not Active | Not Active | Not Active | Not Active |  |  |  |  |  | 
18 | COc1c2occc2cc2ccc(=O)oc12 [METHOXSALEN] | Not Active | Not Active | Not Active | Not Active | Not Active | Not Active | Not Active |  |  |  |  |  | 
19 | C[C@H]1C[C@@H]2[C@H]([C@@H](O)C[C@@]3(C)[C@H]2CC[C@]3(O)C(=O)CO)[C@@]2(C)C=CC(=O)C=C12 [METHYLPREDNISOLONE] | Not Active | Not Active | Not Active | Not Active | Not Active | Not Active | Not Active |  |  |  |  |  | 
20 | Cc1cccc(C)c1OCC(C)N (stereo not given) [MEXILETINE] | Not Active | Not Active | Not Active | Not Active | Not Active | Not Active |  |  |  |  |  |  | Not Active
21 | Nc1cc(N2CCCCC2)nc(N)[n+]1[O-] [MINOXIDIL] | Not Active | Not Active | Not Active | Not Active | Not Active | Not Active | Not Active |  |  |  |  |  | 
22 | CO[C@H]1/C=C/O[C@@]2(C)Oc3c(C)c(O)c4c(O)c(c(/C=N/N5CCN(C6CCCC6)CC5)c(O)c4c3C2=O)NC(=O)/C(C)=C\C=C\[C@H](C)[C@H](O)[C@@H](C)[C@@H](O)[C@@H](C)[C@H](OC(C)=O)[C@@H]1C [RIFAPENTINE] | Not Active | Not Active | Not Active | Not Active | Not Active | Not Active | Not Active |  |  |  |  |  | 
23 | CCCCOc1cc(CC2CNC(=O)N2)ccc1OC (stereo not given) [RO-201724] | Not Active | Not Active | Not Active | Not Active | Not Active | Not Active | Not Active |  |  |  |  |  | 
24 | CC[C@@H](C(=O)[C@@H](C)[C@@H](O)[C@H](C)[C@@H]1O[C@@H]([C@@H](CC)C(=O)O)CC[C@@H]1C)[C@H]1O[C@]2(C=C[C@@H](O)[C@]3(CC[C@@](C)([C@H]4CC[C@](O)(CC)[C@H](C)O4)O3)O2)[C@H](C)C[C@@H]1C [SALINOMYCIN] | Not Active | Not Active | Not Active | Not Active | Not Active | Not Active | Not Active |  |  |  |  |  | 
25 | O=C(Oc1ccccc1C(=O)O)c1ccccc1O [SALSALATE] | Not Active | Not Active | Not Active | Not Active | Not Active | Not Active | Not Active |  |  |  |  |  | 
26 | O=C(O)c1cn(-c2ccc(F)cc2)c2cc(N3CCNCC3)c(F)cc2c1=O [SARAFLOXACIN] | Not Active | Not Active | Not Active | Not Active | Not Active | Not Active | Not Active |  |  |  |  |  | 
27 | CN[C@H]1CC[C@@H](c2ccc(Cl)c(Cl)c2)c2ccccc21 [SERTRALINE] | Not Active | Not Active | Not Active | Not Active | Not Active | Not Active | Not Active |  |  |  |  |  | 

Reference: ChEMBL document CHEMBL1909046, “DrugMatrix in vitro pharmacology data”
